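In this assay, cells in 96-well plates receive the compound at five concentrations for 48 hours. Endpoints are linearly interpolated between the surrounding concentrations. Abbreviation: GI50, concentration required for 50% inhibition of growth.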 Calls of active or inactive are those of the source. No stated cut-off is given here; in the data, active = GI50 up to about 1.1 µM and inactive = higher. Non-standard residues stand in square brackets, D forms with d. Residues, ends and D or L forms follow the SMILES beside them. *: point of attachment. Ac5c = NC1(C(=O)O)CCCC1; Boc = CC(C)(C)OC(=O)*; tBu = CC(C)(C)*
What was measured:
Assay in all cases: DTP human tumour cell line panel, 48 h
[1] = test system: ACHN
[2] = test system: EKVX
[3] = test system: A498
[4] = test system: OVCAR-5
[5] = test system: OVCAR-8
[6] = test system: NCI-H226
[7] = test system: MDA-MB-435
[8] = test system: HOP-92
[9] = test system: SF-295
[10] = test system: COLO 205
[11] = test system: DU-145
[12] = test system: HCT-116
[13] = test system: LOX IMVI
[14] = test system: A549
[15] = test system: SK-MEL-5
[16] = test system: SF-268
[17] = test system: HCT-15
[18] = test system: TK-10
[19] = test system: SR
[20] = test system: HCC 2998

| Compound | GI50 [1] | GI50 [2] | GI50 [3] | GI50 [4] | GI50 [5] | GI50 [6] | GI50 [7] | GI50 [8] | GI50 [9] | GI50 [10] | GI50 [11] | GI50 [12] | GI50 [13] | GI50 [14] | GI50 [15] | GI50 [16] | GI50 [17] [µM] | GI50 [18] | GI50 [19] | GI50 [20] |
| --- | --- | --- | --- | --- | --- | --- | --- | --- | --- | --- | --- | --- | --- | --- | --- | --- | --- | --- | --- | --- |
| CC(=O)OI1NC(=O)c2ccccc21 | > 100 µM (inactive) | > 100 µM (inactive) | > 100 µM (inactive) | > 100 µM (inactive) | > 100 µM (inactive) | > 100 µM (inactive) | > 100 µM (inactive) | > 100 µM (inactive) | > 100 µM (inactive) | > 100 µM (inactive) | > 100 µM (inactive) | > 100 µM (inactive) | > 100 µM (inactive) | > 100 µM (inactive) | > 100 µM (inactive) | > 100 µM (inactive) | > 100 | > 100 µM (inactive) | > 100 µM (inactive) | – |
| C=CCN(c1cc(OC)c2[nH]c(C(=O)OCC)c(C)c2c1[N+](=O)[O-])S(C)(=O)=O | 26.1 µM (inactive) | 18.5 µM (inactive) | 25.8 µM (inactive) | 29.3 µM (inactive) | 28.6 µM (inactive) | 1.04 µM (active) | 24.7 µM (inactive) | 18.6 µM (inactive) | 28.5 µM (inactive) | 15.5 µM (inactive) | 24.7 µM (inactive) | 18.2 µM (inactive) | 19.3 µM (inactive) | 22 µM (inactive) | 16.1 µM (inactive) | 26.4 µM (inactive) | 25.6 | 54.1 µM (inactive) | – | 45.5 µM (inactive) |
| O=C1C2C(c3ccccc3)NC(c3ccccc3)C1C(c1ccccc1)NC2c1ccccc1 (stereo unspecified) | > 100 µM (inactive) | > 100 µM (inactive) | > 100 µM (inactive) | > 100 µM (inactive) | > 100 µM (inactive) | > 100 µM (inactive) | > 100 µM (inactive) | > 100 µM (inactive) | > 100 µM (inactive) | > 100 µM (inactive) | > 100 µM (inactive) | > 100 µM (inactive) | > 100 µM (inactive) | > 100 µM (inactive) | > 100 µM (inactive) | > 100 µM (inactive) | > 100 | > 100 µM (inactive) | > 100 µM (inactive) | – |
| CCOC(=O)C(Cl)(Cl)/S(=N\S(=O)(=O)c1ccccc1)NC(=O)c1ccccc1 (stereo unspecified) | > 100 µM (inactive) | > 100 µM (inactive) | > 100 µM (inactive) | > 100 µM (inactive) | > 100 µM (inactive) | > 100 µM (inactive) | > 100 µM (inactive) | > 100 µM (inactive) | > 100 µM (inactive) | > 100 µM (inactive) | > 100 µM (inactive) | > 100 µM (inactive) | > 100 µM (inactive) | > 100 µM (inactive) | > 100 µM (inactive) | > 100 µM (inactive) | > 100 | > 100 µM (inactive) | > 100 µM (inactive) | – |
| CC(C)CCCC(C)[C@H]1CC[C@H]2N/C(=N/c3ccccc3)CCC[C@]12C (stereo partly specified) | – | – | 3.35 µM (inactive) | – | 0.893 µM (active) | 1.86 µM (inactive) | 1.88 µM (inactive) | 2.97 µM (inactive) | 1.6 µM (inactive) | 1.3 µM (inactive) | 6.52 µM (inactive) | 2.28 µM (inactive) | 0.863 µM (active) | 2.81 µM (inactive) | 1.27 µM (inactive) | 2.06 µM (inactive) | 1.07 | 2.62 µM (inactive) | 1.77 µM (inactive) | – |
| OCCCSc1ccccc1SCCCO | – | > 100 µM (inactive) | – | > 100 µM (inactive) | > 100 µM (inactive) | – | > 100 µM (inactive) | < 0.01 µM (active) | > 100 µM (inactive) | > 100 µM (inactive) | > 100 µM (inactive) | > 100 µM (inactive) | > 100 µM (inactive) | > 100 µM (inactive) | > 100 µM (inactive) | > 100 µM (inactive) | > 100 | > 100 µM (inactive) | > 100 µM (inactive) | > 100 µM (inactive) |
| CC(OC(C)(C)C)C(NC(=O)C(CCCCNC(=O)OC(C)(C)C)NC(=O)C(Cc1c[nH]c2ccccc12)NC(=O)C(N)Cc1ccccc1)C(=O)NC(Cc1ccccc1)C(=O)NC1(C(=O)O)CCCC1 (stereo unspecified) (H-FWK(Boc)T(tBu)F[Ac5c]-OH; configuration not given here) | > 100 µM (inactive) | > 100 µM (inactive) | > 100 µM (inactive) | > 100 µM (inactive) | > 100 µM (inactive) | > 100 µM (inactive) | > 100 µM (inactive) | > 100 µM (inactive) | > 100 µM (inactive) | > 100 µM (inactive) | > 100 µM (inactive) | > 100 µM (inactive) | > 100 µM (inactive) | > 100 µM (inactive) | > 100 µM (inactive) | > 100 µM (inactive) | > 100 | > 100 µM (inactive) | – | > 100 µM (inactive) |
| O=C1C(CO)=C[C@@H](O)[C@H]2O[C@@H]12 [EPOXYDON] | 90.2 µM (inactive) | > 100 µM (inactive) | > 100 µM (inactive) | > 100 µM (inactive) | > 100 µM (inactive) | > 100 µM (inactive) | 25.2 µM (inactive) | > 100 µM (inactive) | > 100 µM (inactive) | > 100 µM (inactive) | > 100 µM (inactive) | 31.1 µM (inactive) | 23.1 µM (inactive) | 77.3 µM (inactive) | > 100 µM (inactive) | > 100 µM (inactive) | > 100 | – | > 100 µM (inactive) | – |

Reference: ChEMBL document CHEMBL1201862, “PubChem BioAssay data set” (2004)
